Measurements reported in US20180369264A1, “COMBINATION OF A CARDIAC STEROID AND AN AKT INHIBITOR FOR THE TREATMENT OF CARDIOVASCULAR DISEASES AND DISORDERS” (YISSUM RESEARCH DEVELOPMENT COMPANY OF THE HEBREW …, priority 2015, published 2018).

Experiments:
[1] = type: in vivo, rat; details: 10 day post MI
Experimental: Male Wister rats (150-175 g body weight) were used. Left anterior descending artery (LAD)-ligation was performed in all animals. […] All injected solutions contained 9% DMSO. Heart contractility in-vivo was monitored using echocardiography. At the end of the treatment period, animals were sacrificed and heart and blood samples were harvested for analysis. Blood samples were also collected (from the eye) at baseline and 24 hours post myocardial infarction (MI).
Blood samples were collected from rat eye at baseline and at 24 hrs. Post LAD-ligation. The plasmas of 11 animals were tested for the indicated biomarkers of MI.

LAD-ligated rats = test: Heart contractility (echocardiography: SF, HR) in LAD-ligated rats; type: in vivo, rat; details: for effect on heart rate: 24 hours, 3 and 6 days post MI; for SF improvement relative to 24 hours post MI: ouabain 0.8 mg/kg/day, MK-2206 12 mg/kg/day, 3, 6 and 10 days post MI
Experimental: Male Wister rats (150-175 g body weight) were used. Left anterior descending artery (LAD)-ligation was performed in all animals. The rats were divided to four groups, each treated with subcutaneous injection with saline (0.5 ml/kg/day), ouabain (0.8-8 mg/kg/day), MK-2206 (12 mg/Kg/day) or a combination of MK-2206 and ouabain. All injected solutions contained 9% DMSO. Heart contractility in-vivo was monitored using echocardiography. At the end of the treatment period, animals were sacrificed and heart and blood samples were harvested for analysis. Blood samples were also collected (from the eye) at baseline and 24 hours post myocardial infarction (MI).
Rats were anesthetized with 10% ketamine, 2% xylazine (0.1 ml/kg) and ventilated with a small animal respirator (Harvard). The heart was exposed via left sternotomy, and the LAD-ligation was induced by placing a 6-0 silk suture around the left anterior descending coronary artery near the atrial auricle. The animals were allowed to recover and treated with 0.5 mg/100 g Tramadol Hydrochloride by subcutaneous injection for post-operative analgesia.
Echocardiograms were performed on rats anesthetized with 2% isoflurane at baseline, at 24 hours, as well as at 3, 6 and 10 days post LAD-ligation, using a VEVO 770 equipped with a 30 MHz linear transthoracic transducer (VisualSonics). Measurements were performed in triplicate using the leading-edge convention for myocardial borders as defined by the […]. Left ventricular, end-diastolic and end-systolic diameters (LVEDD and LVESD), diastolic and systolic interventricular septal diameters (IVSD and IVSS), left ventricular diastolic area (LVEDA), left ventricular systolic area (LVESA), and heart rate (HR) were measured. Shortening fraction (SF) was calculated by the equation: SF (%)=(LVEDD−LVESD)/LVEDD×100. Heart rate was measure by peak intervals of the echocardiography measurements. All measurements were performed by an individual who was blind to the entire experimental protocol and animal treatments.

[2] = test system: Ca^2+ transients in wt zebrafish isolated adult heart; test: Ca^2+ transients in wt zebrafish isolated adult heart; details: for Amplitude (Maximal deflection from baseline) / Area (Area under the transient relative to baseline) / Decay slope (−Δ Fluorescence in the linear phase/sec) / Rate / Rise slope (+Δ Fluorescence in the linear phase/sec): Ouabain 200 μM, MK-2206 1 nM
Experimental: Spontaneous Ca^2+ transients were measured in isolated hearts from adult zebrafish. The zebrafish were stunned by a blow to the head and the hearts were removed quickly and placed in Dulbecco's Modified Eagle's Medium (DMEM) containing 10% Fetal Bovine Serum (FBS) at room temperature. A total 3-5 hearts were placed in a small Petri dish containing 100 μl Krebs-Ringer's solution (119 mM NaCl, 2.5 mM KCl, 1 mM NaH2PO4, 2.5 mM CaCl2, 1.3 mM MgCl2, 20 mM HEPES and 11 mM D-glucose) with 0.01 mM Fura-2 AM (Biotium, Inc., CA, USA) in DMEM-FBS. Following incubation for 10 min (37° C., 5% CO2), 150 μl of Krebs-Ringer's solution were added to the Petri dish which was incubated for an additional 30 minutes. The dye was removed from the solution by two incubations (10 minutes each, room temperature) in DMEM-FBS solution. Intracellular Ca^2+ transients were measured in stabilizing medium containing 1% low-melt agarose in Krebs-Ringer's solution. The hearts were kept for 30 minutes in the presence of MK-2206 (or saline) and then underwent excitation/emission cycles for 2 minutes at 340 and 380 nm with 510 nm emission using a PTI fluorimetric system (Photon Technology International, Madison, USA). Ouabain was then added and the excitation/emission cycles were monitored for 8 minutes. The Ca^2+ levels are presented as the ratio of 340/380 nm fluorescence emission.

[3] = test system: zebrafish accordion mutant (acc) larvae heart; test: In-vivo heart contractility measurements in zebrafish acc mutant larvae; design: species or system zebrafish (Danio rerio); details: 1 nM, 90 minutes
Experimental: Ouabain, bufalin, digoxin, acetylcholine, carbachol, […] (pp2) and U0126 (1,4-diamino-2,3-dicyano-1,4-bis(2-aminophenylthio)butadiene) were purchased from Sigma-Aldrich Inc., Israel. The compounds were dissolved in egg water (0.3 g Instant Ocean Salt in distilled water) to a final selected concentration, as specified in the following examples. The larvae in 20 μL of E3 medium were transferred to the egg water solution containing one or two of the above specified drugs of choice, and incubated for 60-90 minutes at 28° C.
Filming process Zebrafish larvae heart imaging was performed using an Olympus CKX41 (Japan) […] microscope with ×10 or ×20 magnification, and integrated incandescent illumination. A FastCam imi-tech (Korea) high speed digital camera with 640×480 pixel gray scale image sensor was mounted on the microscope, using ImCam software (IMI Technology, Co. Ltd) for high speed video recording. The larvae were anesthetized by placing them in filming/anesthetizing medium. Each larva in 0.5 ml filming/anesthetizing medium was transferred to a 96-well tissue culture plate at room temperature and sequential images of the heart were obtained, with the larvae positioned on their side, at 80 fps during 10 seconds with a shutter speed of 0.016 seconds.
Physiological parameters of cardiovascular performance, as indicated hereinbelow, were evaluated in the zebrafish larvae. […] Sequential still frames were analyzed to capture ventricular end-systole and end-diastole images. […] The Ejection Fraction (EF) was determined by an independent estimate of ventricular volume. […] EF was then calculated according to the equation: EF=(EDV-ESV)/EDV*100. Heart rate (HR) was measured in beats per minute. Cardiac output (CO) was calculated according to the equation: CO=(EDV-ESV)*HR. A minimum of five sequential pairs of systolic and diastolic cycles were measured and analyzed in 9-12 larvae for each treatment.

SMILES	CPK [1] [unit/L]	Trop-T [1] [ng/mL]	effect on heart rate (LAD-ligated rats)	SF improvement relative to 24 hours post MI (LAD-ligated rats)	Amplitude (Maximal deflection from baseline) [2]	Area (Area under the transient relative to baseline) [2]	Decay slope (−Δ Fluorescence in the linear phase/sec) [2]	Rate [2] [wave/min]	Rise slope (+Δ Fluorescence in the linear phase/sec) [2]	effect on heart contractility [3]	effect on shortening fraction (SF) following LAD-ligation (LAD-ligated rats; 0.8 mg/kg/day, by itself)	effect on shortening fraction (SF) following LAD-ligation (LAD-ligated rats; 8 mg/kg/day)	increase in amplitude of the Ca^2+ transients ([2]; 200 μM ouabain) [%]	increase in decay slope of the Ca^2+ transients ([2]; 200 μM ouabain) [%]	increase in rise slope of the Ca^2+ transients ([2]; 200 μM ouabain) [%]
NC1(c2ccc(-c3nc4ccn5c(=O)[nH]nc5c4cc3-c3ccccc3)cc2)CCC1 [MK-2206]	363.5 ± 88.59	0.07 ± 0.06	did not affect significantly heart rate	did not result in SF improvement	4.8 ± 0.13	2.81 ± 0.19	4.65 ± 0.54	48 ± 4.8	1.65 ± 0.28						
C[C@@H]1O[C@@H](O[C@H]2C[C@@H](O)[C@]3(CO)[C@H]4[C@H](O)C[C@]5(C)[C@@H](C6=CC(=O)OC6)CC[C@]5(O)[C@@H]4CC[C@]3(O)C2)[C@H](O)[C@H](O)[C@H]1O [ouabain, 3-(alpha-L-Rhamnopyranosyloxy)-1beta,5beta,11alpha,14,19-pentahydroxy-5beta-card-20(22)-enolide]	616.6 ± 197.6	0.24 ± 0.17	did not affect significantly heart rate	did not result in SF improvement	6.59 ± 0.71	2.94 ± 0.44	20 ± 3.51	52 ± 6.8	7.84 ± 2.02	no effect on heart contractility	did not increase SF	significantly increased the SF of the heart starting at the 3rd day of treatment	27	86	61
